Measured values taken from patent US20160176867A1, “MODIFIED BET-PROTEIN-INHIBITING DIHYDROQUINOXALINONES AND DIHYDROPYRIDOPYRAZINONES” (BAYER PHARMA AKTIENGESELLSCHAFT, priority 2013, published 2016).

Tests used:
MOLM-13 cells = assay: Cell proliferation assay (alamarBlue), MOLM-13; assay type: cell-based; conditions: Homo sapiens; MOLM-13 (acute myeloid leukaemia), 96 hours
Summary of the method: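 Cells in RPMI1640 with 10% FCS, read by alamarBlue fluorescence (ex 530, em 590 nm) after overnight plating and again after 96 h compound exposure at 37° C (1E-5 to 1E-8 M). Baseline-subtracted signal compared with buffer-treated cells to derive IC50.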

[1] = molecular target: T1, BRD4 bromo domain 1 [BRD4(1)] (Homo sapiens, UniProt O60885); assay: BRD4/acetylated peptide H4 binding assay (TR-FRET), BRD4 bromo domain 1; conditions: inhibition of BRD4(1)/Ac-H4 peptide interaction
T1 construct: N-terminally His6-tagged BRD4(1) (amino acids 67-152); made in house; host or cells: E. coli
Summary of the method: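 TR-FRET (665/620 nm ratio) measuring displacement of biotinylated tetra-acetylated H4 peptide from His6-BRD4(1) (aa 67-152, E. coli; typically 10 nM) at pH 7.5. Compound (11 concentrations, 0.1 nM–20 μM, duplicates) was preincubated 10 min at 22°C, then 1 h at 22°C and ≥3 h at 4°C; IC50 from 4-parameter fit normalized to DMSO and no-BRD4 controls.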

Row | Compound | IC50 (MOLM-13 cells) | IC50 [1]
1 | C[C@@H]1C(=O)N(C)c2ccc(Nc3cccc(C(=O)N[C@H]4CC[C@H](N5CCN(CC6CC6)CC5)CC4)c3)nc2N1C1CCOCC1 [Example 14, N-{trans-4-[4-(Cyclopropylmethyl)piperazin-1-yl]cyclohexyl}-3-{[(3R)-1,3-dimethyl-2-oxo-4-(tetrahydro-2H-pyran-4-yl)-1,2,3,4-tetrahydropyrido[2,3-b]pyrazin-6-yl]amino}benzamide] | 343 nM | 144 nM
2 | C[C@@H]1C(=O)N(C)c2ccc(Nc3cccc(S(N)(=O)=O)c3)nc2N1C1CCOCC1 [Example 58, 3-{[(3R)-1,3-dimethyl-2-oxo-4-(tetrahydro-2H-pyran-4-yl)-1,2,3,4-tetrahydropyrido[2,3-b]pyrazin-6-yl]amino}-benzenesulphonamide] | 378 nM | 139 nM
3 | C[C@@H]1C(=O)N(C)c2ccc(Nc3cccc(C(=O)N4CCN(C)CC4)c3)nc2N1C1CCCC1 [Example 1, (3R)-4-Cyclopentyl-1,3-dimethyl-6-({3-[(4-methylpiperazin-1-yl)carbonyl]phenyl}amino)-3,4-dihydropyrido[2,3-b]pyrazin-2(1H)-one] | 613 nM | 67 nM
4 | CC(C)CN1c2nc(Nc3cccc(S(=O)(=O)N[C@H]4CC[C@H](N5CCN(CC6CC6)CC5)CC4)c3)ccc2N(C)C(=O)[C@H]1C [Example 45, N-{trans-4-[4-(cyclopropylmethyl)-piperazin-1-yl]cyclohexyl}-3-{[(3R)-4-isobulyl-1,3-dimethyl-2-oxo-1,2,3,4-tetrahydropyrido[2,3-b]pyrazin-6-yl]amino}-benzenesulphonamide] | 126 nM | 51 nM
5 | C[C@@H]1C(=O)N(C)c2ccc(Nc3cccc(S(=O)(=O)N(C)C)c3)nc2N1C1CCOCC1 [Example 6, 3-{[(3R)-1,3-Dimethyl-2-oxo-4-(tetrahydro-2H-pyran-4-yl)-1,2,3,4-tetrahydropyrido[2,3-b]pyrazin-6-yl]amino}-N,N-dimethylbenzenesulphonamide] | 53 nM | 27 nM
6 | C[C@@H]1C(=O)N(C)c2ccc(Nc3cccc(S(=O)(=O)N4CC5(CCC5)C4)c3)nc2N1C1CCNCC1 [Example 122, (3R)-6-{[3-(2-Azaspiro[3.3]hept-2-ylsulphonyl)phenyl]amino}-1,3-dimethyl-4-(piperidin-4-yl)-3,4-dihydropyrido[2,3-b]pyrazin-2(1H)-one] | 396 nM | 21 nM
